Holding throughout (type): physicochemical
Common to all, as to conditions: mean ± DE of three replicate experiments

A short description of experiment [1]: Antioxidant capacity (ORAC). The source says:
(§1) We confirmed the removal activity of the polyphenol rich extract from microfiltered blackberry juice using different methods (Chart 11), and this activity was compared with the flavonoid remover of quercetin radicals.

Experiment [2] can be described thus: DPPH radical removal.
Excerpt: as §1

Experiment [3] can be described thus: NO removal assay. Here is the method: as §1
Four hours of pretreatment with the blackberry extract reduced NO production in a dose dependent manner only when the LPS+IFNγ was incubated with the extract (no wash). If the extract is removed before the addition of LPS+IFNγ (with rinsing), inhibition of NO production was seen only in the highest concentration tested.

Marks after values point to notes of the source that are not given here.

For the compound `O=c1c(O)c(-c2ccc(O)c(O)c2)oc2cc(O)cc(O)c12` [Quercetin], the ORAC in experiment [1] was 2067 ± 81^b μM TE/g. Further, the “DPPH IC50” value in experiment [2] was 2.17 ± 0.08^b μg/mL. Besides, the “No Removal IC50” value in experiment [3] is 6.57 ± 0.8^b μg/mL.

For the origin of these results see patent US10278949B2, “Method for obtaining an extract rich in ellagic acid tannins from fruits that contain these compounds, and resulting extract” (UNIVERSIDAD DE COSTA RICA, priority 2011, dated 2019).
